The values below come from publication PMC5979480 (International Journal of Molecular Sciences, 2018).

In data set [1] the test system is 6-OHDA hemi-parkinsonian (PD) rats. Kind of data set: Apomorphine-induced contralateral rotation. The format is in vivo, Sprague-Dawley rats. The method, then:
(§1) Modified surgical procedures were based on our previously described methods. Under Zoletil-Rumpun (10 mg/kg: 2 mg/kg, i.p.) anesthesia, SD rats were placed in a stereotaxic frame with the nose bar positioned 3.3 mm below the interaural line. Unilateral 6-hydroxydopamine (6-OHDA, 8 μg dissolved in 0.9% saline with 0.02% ascorbic acid) was injected for DA lesions into the left median forebrain bundle (MFB, coordinates: anteroposterior [49, 53], −4.3 mm; lateral (L), 1.6 mm from bregma; ventral (V), 8.2 mm from the dura).
Apomorphine (0.5 mg/kg in 0.1% ascorbic acid, s.c.)-induced contralateral rotations were recorded using a digital video camera to count the number of rotations for 60 min at weekly intervals up to 4 weeks post-lesion (i.e., 7, 14, 21, and 28 days post-lesion) using the same test conditions. The net number of rotations was calculated (contralateral minus ipsilateral full turns). In unilaterally 6-OHDA lesioned animals, apomorphine-induced contralateral rotation is a well-established correlate of dopamine depletion, with rotation levels seen here indicative of an 80–90% loss.

Data set [2] has the same test system. Kind of data set: Open-field test (locomotor and anxiety-like behavior). The format is in vivo, Sprague-Dawley rats. The conditions noted are these: 15 nmol/kg/day s.c. pump. The method, then:
as §1
In addition to its well-known motor manifestations, PD is also known to elicit neuropsychiatric disorders such as anxiety. We thus used open field measurements in the lesioned animals, as well as in intact animals, to evaluate not only general motor activity but also anxiety-related exploratory activity. Rats were first habituated to an open field Plexiglas arena (60 × 60 × 100 cm) for 10 min at day 4 and 5 post-lesion. At day 6 post-lesion, locomotor activity and anxiety-like behavior were monitored for 10 min using open field tests. The rat behaviors were recorded using an EthoVision system. Total distance, velocity, and freezing times in the open-field were considered general locomotor activities. The number and retention times in the central zone of the open field were measured as anxiety-like behaviors. The center of the open field was defined as a 30 × 30 cm^2 in the geometric center of the arena.

Data set [3] deals with TBI injury in rats. The conditions noted are these: 38.5 µg/kg/day GIP (equivalent to 7.8 nmol/kg/day); cited from earlier work.
For data set [4] the following is noted: in vivo; cited from earlier work.

In the case of `CC[C@H](C)[C@H](NC(=O)[C@H](CO)NC(=O)[C@H](Cc1ccc(O)cc1)NC(=O)[C@H](CC(=O)O)NC(=O)[C@H](CO)NC(=O)[C@@H](NC(=O)[C@H](Cc1ccccc1)NC(=O)[C@@H](NC(=O)CNC(=O)[C@H](CCC(=O)O)NC(=O)[C@H](C)NC(=O)[C@@H](N)Cc1ccc(O)cc1)[C@@H](C)O)[C@@H](C)CC)C(=O)N[C@@H](C)C(=O)N[C@@H](CCSC)C(=O)N[C@@H](CC(=O)O)C(=O)N[C@@H](CCCCN)C(=O)N[C@H](C(=O)N[C@@H](Cc1c[nH]cn1)C(=O)N[C@@H](CCC(N)=O)C(=O)N[C@@H](CCC(N)=O)C(=O)N[C@@H](CC(=O)O)C(=O)N[C@@H](Cc1ccccc1)C(=O)N[C@H](C(=O)N[C@@H](CC(N)=O)C(=O)N[C@@H](Cc1c[nH]c2ccccc12)C(=O)N[C@@H](CC(C)C)C(=O)N[C@@H](CC(C)C)C(=O)N[C@@H](C)C(=O)N[C@@H](CCC(N)=O)C(=O)N[C@@H](CCCCN)C(=O)NCC(=O)N[C@@H](CCCCN)C(=O)N[C@@H](CCCCN)C(=O)N[C@@H](CC(N)=O)C(=O)N[C@@H](CC(=O)O)C(=O)N[C@@H](Cc1c[nH]c2ccccc12)C(=O)N[C@@H](CCCCN)C(=O)N[C@@H](Cc1c[nH]cn1)C(=O)N[C@@H](CC(N)=O)C(=O)N[C@H](C(=O)N[C@H](C(=O)N[C@@H](CCC(N)=O)C(=O)O)[C@@H](C)O)[C@@H](C)CC)C(C)C)[C@@H](C)CC` [GIP, glucose-dependent insulinotropic polypeptide], in data set [1] (15 nmol/kg/day GIP, weekly tests up to 4 weeks post-lesion, time effect GIP p = 0.940), the “Sensitization (progressive increase in apomorphine-induced rotations with repeated weekly tests)” value is reported as “not seen”. Further, the “Apomorphine-induced rotation, GIP vs saline” value in data set [1] (15 nmol/kg/day s.c. pump for 2 weeks from 2 days pre-lesion, apomorphine 0.5 mg/kg s.c., 60 min, week 3 (p = 0.042) and week 4 (p = 0.019) post-6-OHDA, saline n = 9, GIP n = 10) is listed as “statistically significant differences”. Further, in data set [1] (apomorphine 0.5 mg/kg, both lesioned groups (saline and GIP 15 nmol/kg/day)), the “Initial levels of apomorphine-induced rotations” value was “over 400”. For the same molecule, the “Open-field locomotor behavior (total distance moved, velocity, freezing time)” value in data set [2] (10 min open field post-lesion, GIP vs saline p = 0.031, 0.021, 0.034, saline n = 8, GIP15 n = 5, naïve n = 6) is “improved locomotor behavior to a level similar to the naïve group”. Further, the “Number of entries into the central zone, GIP vs saline” value in data set [2] (10 min open field, p = 0.008) is “significantly higher”. For the same molecule, the “Retention times in the central zone, GIP vs saline” value in data set [2] (10 min open field, p = 0.218) is “trended to improve this deficit”. For the same molecule, the “Effect on TBI injury” value in data set [3] is reported as “effectively mitigated TBI injury”.
For Exenatide, the “Share of plasma levels reaching the brain” value in data set [4] is approximately 2%.
